Reference: US8304420B2, “Substituted quinazolines for reducing platelet count” (Shire LLC, priority 2006, dated 2012)
Like-named read-outs stand apart in the source and are kept apart here. Marks after values point to notes of the source that are not given here. Blank lines part the entries; values can stand above or below the compound they belong to.

Columns and labels:
[1] = Aqueous solubility / solubility-pH profile
[2] = dog, in vivo
Experimental: The potential benefit of improved water solubility on the absorption of these open-ring analogues was shown in a comparative bioavailability study in the dog. Using the unsubstituted ethyl-5,6-dichloro-3,4-dihydro-2-(1H)-iminoquinazoline-3-acetate HBr as a model compound, a comparison was made of the systemic availability of anagrelide when given as this compound or as anagrelide itself in equimolar doses (7.7 & 6.1 mg/kg respectively).
The metabolite-to-drug exposure ratio after anagrelide was 1.5 compared to 0.9 after the prodrug.
The lesser variability was consistent with more efficient absorption. This study illustrated the potential benefits of the open-ring prodrugs to improve absorption.

[3] = Conversion of prodrug to anagrelide in human plasma (LC/MS-MS); assay type: in vitro ADME; settings: spiked 100 ng/mL, room temperature, first point of measurement immediately after mixing
Experimental: Such prodrugs are likely to be extremely rapidly and completely cyclised in plasma to the closed ring 3-alkylanagrelide analogues. […] Human plasma was spiked with anagrelide prodrug (final concentration 100 ng/mL). Immediately after mixing, and at 15, 30, 45 and 60 minutes afterward samples were analysed for anagrelide prodrug and anagrelide.

[4] = Radiolabelling study in humans, oral 14C-labelled drug; assay type: in vivo
Experimental: Anagrelide HCl itself is a poorly soluble drug substance. In the pH range of 4-8, the solubility is less than 10 μg/mL. […] Thus over much of the physiological pH range the drug has very poor aqueous solubility. Even material dissolving in the stomach at pH 1-2 may precipitate in the duodenum at pH 5-6. This presents potential problems for the quantitative absorption from the most likely site for absorption, namely the upper small intestine. As a consequence anagrelide is micronised prior to filling into capsules for clinical use to ensure maximal absorption. […] However for those patients requiring larger doses either as the result of relative insensitivity to the drug, higher first-pass pre-systemic metabolism or greater body weight, the possibility exists for incomplete absorption. This would be expected to lead to increased variability in attained plasma drug concentrations and consequential variability in patient response.

[5] = tested on: differentiation of human CD34+ stem cells into megakaryocytes; test: In vitro anti-megakaryocytic activity (model of megakaryocytopoiesis); assay type: cell-based
Source text: Such activity may be assessed using a well established model. Assessment of the in vitro anti-megakaryocytic activity—and potentially therefore the platelet lowering capability—of the anagrelide prodrugs can be determined using the model of megakaryocytopoiesis (Cohen-Solal et al., Thromb. Haemost. 1997, 78:37-41 and Cramer et al, Blood, 1997, 89:2336-46). This involves examining the differentiation of human CD34^+ stem cells into megakaryocytes which ultimately give rise to blood platelets.

[6] = Solubilities of salts in three solvents (Example 2); settings: for solubility at 3 min: 20 °C, thermodynamic from solid
Experimental: (§1) The solubilities of various salts was investigated in three solvents [distilled water (pH 5.0), 50 mM ammonium formate (pH 7.9) and 0.1 M hydrochloric acid (pH0.6)]. An excess of the salt was suspended in the chosen medium and sonicated for 3 minutes. The mixture was centrifuged for 10 minutes, the supernatant liquid was collected and the solubility was measured.

[7] = physchem; settings: 20 °C, pH 5, water, thermodynamic from solid
Experimental: as §1

[8] = Plasma exposure to metabolite after treatment with anagrelide; assay type: in vivo
[9] = tested on: PDEIII; test: PDEIII inhibition; assay type: biochemical; settings: more potent than anagrelide itself
[10] = estimated from the solubility/pH profile
[11] = 0.1 M hydrochloric acid, pH 0.6, simulated gastric fluid
[12] = 50 mM ammonium formate, pH 7.9, aqueous buffer

Structure (SMILES): Br.CCOC(=O)CN1Cc2c(ccc(Cl)c2Cl)NC1=N [ethyl-5,6-dichloro-3,4-dihydro-2-(1H)-iminoquinazoline-3-acetate HBr]
- solubility ([1]; distilled water): ~5500 µg/mL
- AUC for anagrelide, range across dogs ([2]; po): 367-1470 ng.hmL^−1
- Cmax for anagrelide, range across dogs ([2]; po): 170-418 ngmL^−1
- metabolite-to-drug exposure ratio ([2]; po): 0.9
- fold higher Cmax for anagrelide than when the drug itself was administered ([2]; po, 6.1 mg/kg): approximately 17 fold
- mean fold higher AUC for anagrelide than when the drug itself was administered ([2]; po, 6.1 mg/kg): 16 fold
- prodrug found in human plasma (conversion to anagrelide) [3]: no prodrug could be found

Structure (SMILES): Cl.O.O=C1CN2Cc3c(ccc(Cl)c3Cl)N=C2N1 [anagrelide, 6,7-Dichloro-1,5-dihydroimidazo[2,1-b]-quinazolin-2(3H)-one hydrochloride monohydrate]
- dissociation constant pKa1 [1, 10]: 2.9
- dissociation constant pKa2 [1, 10]: 9.8
- AUC for anagrelide, range across dogs ([2]; po): 21.6-188 ng.hmL^−1
- Cmax for anagrelide, range across dogs ([2]; po): 9.5-44.3 ngmL^−1
- inherent absorption ([2]; male, 6.1 mg/kg): < 6.25%
- metabolite-to-drug exposure ratio ([2]; male, po): 1.5
- AUC0-t of 3-hydroxy anagrelide, mean ([2]; male, po, 6.1 mg/kg): 128 ng·h/mL
- AUCinfin of 3-hydroxy anagrelide, mean ([2]; male, po, 6.1 mg/kg): 79.9 ng·h/mL
- Cmax of 3-hydroxy anagrelide, mean ([2]; male, po, 6.1 mg/kg): 24.9 ng/mL
- Tmax of 3-hydroxy anagrelide, median ([2]; male, po, 6.1 mg/kg): 1.5^b hours
- t½ of 3-hydroxy anagrelide, calculated as ln2/(mean rate constant) ([2]; male, po, 6.1 mg/kg): 2.6^e hours
- absorption ([4]; implied from urinary recovery after oral 1 mg): > 75%
- administered radioactivity recovered in the urine ([4]; oral 1 mg 14C-labelled drug): > 75%
- IC50 ([5]; hydrochloride monohydrate): ~27 nM

Structure (SMILES): Br.COC(=O)C1(N2Cc3c(ccc(Cl)c3Cl)N=C2N)CC1
- solubility at 3 min [6, 11]: 6430 µg/mL
- Solubility, Ammonium formate (50 mM, pH 7.9) ([6]; ca. 20° C., 50 mM ammonium formate, pH 7.9): unstable
- solubility at 3 min ([6]; distilled water, pH 5, water): 7060 µg/mL

Structure (SMILES): Cl.O=C1CN2Cc3c(ccc(Cl)c3Cl)N=C2N1
- solubility at 3 min [7]: 10 µg/mL
- solubility at 3 min [6, 12]: 11 µg/mL
- solubility at 3 min [6, 11]: 169 µg/mL

Structure (SMILES): Br.CC1(C)C(=O)NC2=Nc3ccc(Cl)cc3CN21
- solubility at 3 min [6, 12]: 4 µg/mL
- solubility at 3 min [6, 11]: 215 µg/mL
- solubility at 3 min ([6]; distilled water, pH 5, water): 20 µg/mL

Now from value to compound, other results behind:

- plasma exposure to metabolite relative to the drug itself [8]: three times greater
Structure (SMILES): O=C1NC2=Nc3ccc(Cl)c(Cl)c3CN2C1O (stereo not drawn) [3-hydroxyanagrelide]
- potency as inhibitor of PDEIII relative to anagrelide [9]: ~40 fold

- solubility at 3 min [6, 12]: 1 µg/mL
- solubility at 3 min [6, 11]: 35 µg/mL
- solubility at 3 min ([6]; distilled water, pH 5, water): 2 µg/mL
Structure (SMILES): Br.O=C1NC2=Nc3ccc(Cl)c(Cl)c3CN2C12CC2

- solubility at 3 min [6, 12]: 16 µg/mL
- solubility at 3 min [6, 11]: 46 µg/mL
- solubility at 3 min ([6]; distilled water, pH 5, water): 7340 µg/mL
Structure (SMILES): CC(C)(C(=O)[O-])N1Cc2c(ccc(Cl)c2Cl)N=C1N.[Na+]

- IC50 [5]: ~160 nM
Structure (SMILES): CC1(C)C(=O)NC2=Nc3ccc(Cl)c(Cl)c3CN21 [3, 3, dimethyl anagrelide]
